For data set [1] the following is noted: from literature; cited from earlier work.
Data set [2] addresses T1, tKSI^D40N (Comamonas testosteroni, UniProt P00947, D38N). More on the design: species or system Commamonas testosteroni. The settings on record: for δ1, chemical shift of most downfield peak in complex / δ2, chemical shift of second downfield peak in complex: pH 7.2, −3 °C.
Data set [3] concerns the target KSI. More on the design: method as in PMID 7918439. The settings on record: less precise estimate; read-out: affinity of equilenin estimated by previous assays; cited from earlier work.
Data set [4] is described as follows: Determination of phenol pKa values (literature or spectral titration).
Data set [5] is described as follows: physchem.
Data set [6] has as its target T1, tKSI^D40N. The settings on record: read-out: apparent affinity, previous assay; pH 7; cited from earlier work.
For data set [7], the target named is tKSI^D40N (ketosteroid isomerase) (Comamonas testosteroni, UniProt P00947, D38N). Nature of the data set: biochemical. The class given is binding, Commamonas testosteroni.
Data set [8] concerns the target pKSI^D40N (ketosteroid isomerase) (Pseudomonas putida, UniProt P07445, D34C/D40N). Nature of the data set: biochemical. It is filed as binding.
Details of data set [9]: method as in earlier work. Conditions: cited from earlier work.
The nature of data set [10]: Enthalpies of ionization of phenols by titration with NaOH. It is filed as physicochemical.
Excerpt: The enthalpy of ionization of HEPES, used to correct for proton transfer to buffer, is 5.02 kcal/mol [ [149]].
Data set [11] addresses pKSI^D40N (Pseudomonas putida, UniProt P07445, D34C/D40N). The class given is binding. Conditions: pH 7.2, 25 °C.
Description: Briefly, the affinity and enthalpy of binding of a high-affinity reference ligand (L ref) were first determined by direct titration of KSI ( Figure 14A) [ [147]]. […] Prior to ITC experiments, enzyme was dialyzed into buffer containing 10 mM HEPES (pH 7.2), 100 mM NaCl, 0.1 mM EDTA, 0.1 mM Tri(2-carboxyethyl)phosphine hydrochloride. All ligands were dissolved in the final dialysis buffer, and all samples were degassed under vacuum. ITC experiments were performed using a VP-ITC (MicroCal, Northampton, Massachusetts, United States) at 25 °C.
After background subtraction, the data were fit by nonlinear least squares regression using a displacement model, with the stoichiometry, association constant, and change of enthalpy of interaction of the weak ligand as the free variables, and the association constant and change of enthalpy of the tight ligand fixed based on the values obtained from direct titration [ [146]].
The mark [12] stands for this setting: solution with ionic strength 100 mM maintained with NaCl.
The mark [13] stands for this setting: spectral titration, 25 °C, ionic strength 100 mM.
Setting [14] is: pH 8, errors in parenthesis are average deviations, read-out: apparent affinity at pH 8 ([picture]).
The mark [15] stands for this setting: Displacement assay, phenolate form.
Where [16] appears, read: Displacement assay, uncorrected for enzyme ionization enthalpy.
Where [17] appears, read: apparent affinity at pH 8 ([picture]), pH 8, errors in parenthesis are average deviations.

Results on 38 compounds are retold here after article PMC1413570, “Testing Electrostatic Complementarity in Enzyme Catalysis: Hydrogen Bonding in the Ketosteroid Isomerase Oxyanion Hole” (PLoS Biology, 2006).

Where two headings read alike, the source gives them in different places. Marks after values point to notes of the source that are not given here.

Sequence of pKSI^D40N (ketosteroid isomerase) (P07445 whole entry D34C/D40N): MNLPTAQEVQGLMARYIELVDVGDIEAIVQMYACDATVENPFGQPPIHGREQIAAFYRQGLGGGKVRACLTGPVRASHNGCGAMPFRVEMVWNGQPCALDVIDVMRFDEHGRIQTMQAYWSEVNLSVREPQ
Sequence of pKSI^D40N (P07445 whole entry D34C/D40N): as above
Sequence of tKSI^D40N (ketosteroid isomerase) (P00947 whole entry D38N): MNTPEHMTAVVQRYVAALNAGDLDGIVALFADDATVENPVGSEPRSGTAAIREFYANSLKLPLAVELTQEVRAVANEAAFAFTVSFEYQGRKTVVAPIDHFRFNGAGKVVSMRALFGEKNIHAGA
T1 sequence (P00947 whole entry D38N, looked up): as the sequence (P00947 whole entry D38N) above

In the case of `Oc1cccc(I)c1` [Phenol 3-I, 3-iodophenol], the pKa in data set [1] is given as 9.2. In [2], the “δ1, chemical shift of most downfield peak in complex” value (shortened to “δ1, chemical shift”) is 16.8 ppm and the “δ2, chemical shift of second downfield peak in complex” value (shortened to “δ2, chemical shift”) is 15.9 ppm.

`C[C@]12CCc3c(ccc4cc(O)ccc34)[C@@H]1CCC2=O` [equilenin]: the Kd in data set [3] is 0.0001 to 0.001 µM. Moreover, in [2] (spectrum not shown), the “chemical shift of the principal downfield peak upon binding” value is given as 17.6 ppm. This compound displayed a pKa in data set [4] (solution of 100 mM ionic strength maintained with NaCl) of 9.7.

`Oc1ccc(Cl)c(Cl)c1` [3,4-Cl2, 3,4-dichlorophenol] had a pKa in data set [5] of 8.5. For the same compound, in data set [2], the “δ1, chemical shift” value came out at 16.4 ppm and the “δ2, chemical shift” value was determined as 15.6 ppm.

On to `Oc1ccc(Cl)cc1` [Phenol 4-Cl, 4-chlorophenol], for which the Kd in [6] was 7.9 ± 1.3 µM; in [7] it was 40 ± 7 µM.

On to `Oc1cccc(Cl)c1` [Phenol 3-Cl], for which, in data set [2], the “δ1, chemical shift” value is on record as 17.1 ppm and the “δ2, chemical shift” value was 15.6 ppm.

In the case of `Cc1cc(O)ccc1F` [Phenol 4-F-3-CH3, 4-Fluoro-3-methylphenol], the pKa in data set [4] (setting [12]) came out at 9.8.

For the compound `Oc1cc(F)ccc1F` [2,5-F2], the pKa in data set [4] (setting [13]) was 7.7^b.

In data set [8] (Kd from fit of pH dependence of binding to Equation 4, phenol pKa fixed at 8.0, enzyme pKa 5.5), `N#Cc1ccc(O)cc1` [Phenol 4-CN, 4-cyanophenol] gave a Kd of 0.016 ± 0.002 µM. The “δ1, chemical shift” value in data set [2] is listed as 15.6 ppm.

With `Oc1ccc(F)cc1` [Phenol 4-F], in data set [9], the “∆Hion Lit value” was 5.93 (0.05). In addition, the figures for the Kd in data set [8] (setting [14]) and in [7] (setting [14]) were 133 µM and 320 µM, respectively. In addition, the “∆Hion (heat of ionization)” value was 5.97 (0.03) in data set [10] (Ionic strength 0.0) and 6.21 (0.06) in data set [10] (Ionic strength 0.1). In [11] (setting [15]), the “∆G of binding” value is -11.34 (0.02) kcal/mol. The “∆Hrel (relative enthalpy of binding)” value in data set [11] (setting [16]) was -9.8 (0.1) kcal/mol.

Turning to `N#Cc1cccc(O)c1` [Phenol 3-CN], in data set [2], the “δ1, chemical shift” value is recorded as 16.4 ppm and the “δ2, chemical shift” value is 15.6 ppm.

Consider `Oc1ccc(F)cc1F` [2,4-F2], for which the pKa in [4] (setting [13]) is 8.6^b.

Turning to `O=[N+]([O-])c1cc(O)ccc1Cl` [Phenol 3-NO2-4-Cl], in data set [2], the “δ1, chemical shift” value was determined as 15.8 ppm and the “δ2, chemical shift” value is 15.4 ppm. In data set [4] (setting [13]), this compound showed a pKa of 7.8.

In the case of `O=[N+]([O-])c1ccc(O)cc1C(F)(F)F` [Phenol 3-CF3-4-NO2], in [2], the “δ1, chemical shift” value was 14.9 ppm and the “δ2, chemical shift” value is listed as 14.5 ppm. In data set [4] (setting [13]), the pKa was determined as 6.3.

Turning to `O=[N+]([O-])c1cccc(O)c1` [Phenol 3-NO2], in [2], the “δ1, chemical shift” value is recorded as 16.4 ppm and the “δ2, chemical shift” value turned out to be 15.5 ppm.

Consider `Oc1ccccc1F` [Phenol 2-F, 2-fluorophenol], for which, in data set [1], the pKa is 8.8.

As to `Oc1cc(F)cc(F)c1F` [2,3,5-F3, 2,3,5-trifluorophenol], the pKa in data set [4] (setting [12]) came out at 7.1.

`Oc1ccc(F)c(F)c1` [3,4-F2]: the Kd in [8] (setting [14]) was 31 µM; in [7] (setting [14]) it was 69 µM. In addition, the “∆Hion (heat of ionization)” value in data set [10] (Ionic strength 0.1) is reported as 7.04 (0.06). For the same compound, in data set [11] (setting [15]), the “∆G of binding” value is recorded as -11.14 (0.01) kcal/mol. In addition, the “∆Hrel (relative enthalpy of binding)” value in [11] (setting [16]) was -8.53 (0.05) kcal/mol.

With `Oc1ccccc1` [Phenol, phenol], the “∆Hion Lit value” in data set [9] is 6.1 (0.2). In addition, the Kd in data set [8] (setting [17]) was 135 µM; in data set [6], 61 ± 10 µM; in data set [7] (setting [17]) it was 410 µM; in data set [7] (apparent affinity, new assay, pH 7), 430 ± 80 µM. Besides, the “∆G of binding” value in data set [11] (setting [15]) is given as -11.3 (0.1) kcal/mol.

As to `Oc1cc(F)cc(C(F)(F)F)c1` [Phenol 3-F-5-CF3, 3-fluoro-5-(trifluoromethyl)phenol], in [2], the “δ1, chemical shift” value is listed as 16.4 ppm and the “δ2, chemical shift” value was found to be 15.6 ppm. This compound also showed a pKa in [4] (solution of ionic strength 100 mM maintained with NaCl) of 8.2.

Consider `Oc1cccc(Br)c1` [Phenol 3-Br], for which, in data set [2], the “δ1, chemical shift” value turned out to be 17.0 ppm and the “δ2, chemical shift” value is recorded as 15.6 ppm.

In [5], `CC(C)c1ccc(O)cc1` [Phenol 4-isoproyl, 4-isopropylphenol] gave a pKa of 10.

As to `CC(C)c1cccc(O)c1` [Phenol 3-isopropyl, 3-isopropylphenol], in data set [4] (setting [12]), the pKa was 9.9.

As for `Oc1c(F)c(F)c(F)c(F)c1F` [pentafluorophenol], the pKa in data set [5] came out at 5.7.

With `Cc1ccc(O)cc1` [Phenol 4-methyl, 4-methylphenol], the pKa in [1] is reported as 10.2.

Regarding `Oc1cc(F)c(F)cc1F` [2,4,5-F3, 2,4,5-trifluorophenol], the pKa in [4] (setting [12]) amounted to 7.7.

With `Oc1cccc(C(F)(F)F)c1` [Phenol 3-CF3], in data set [2], the “δ1, chemical shift” value was 17.0 ppm and the “δ2, chemical shift” value was 16.1 ppm. The same compound registered a pKa in data set [4] (setting [13]) of 8.7.

With `Oc1cc(F)cc(F)c1` [3,5-F2], the Kd amounted to 8.4 µM in [8] (setting [14]) and 20 µM in data set [7] (setting [14]). Further, the “∆Hion (heat of ionization)” value in [10] (Ionic strength 0.1) is 5.73 (0.07). In addition, the results for the “∆G of binding” value in data set [11] (Direct Titration) and in [11] (setting [15]) were -11.23 (0.03) kcal/mol and -11.1 (0.2) kcal/mol, respectively. Also, the entries for the “∆Hrel (relative enthalpy of binding)” value in data set [11] (Direct Titration) and in data set [11] (setting [16]) were -6.9 (0.1) kcal/mol and -6.7 (0.8) kcal/mol, respectively.

Take `Oc1ccc(C(F)(F)F)cc1` [Phenol 4-CF3]: in [2], the “δ1, chemical shift” value is reported as 16.4 ppm and the “δ2, chemical shift” value is 15.9 ppm. This compound also gave a pKa in [4] (setting [13]) of 8.9.

For `O=[N+]([O-])c1ccc(O)cc1` [Phenol 4-NO2, 4-nitrophenol], in [8] (apparent affinity of the phenol for the enzyme (Equation 3), pH 6.9), the Kd came to 1.8 ± 0.2 µM. In addition, the Kd in data set [8] (pH-independent affinity of the phenolate form for the protonated enzyme (Equation 4), converted from apparent affinity at pH 6.9) came out at 0.026 ± 0.002 µM. In data set [2], the “δ1, chemical shift” value came out at 15.0 ppm and the “δ2, chemical shift” value was determined as 14.8 ppm.

On to `CCc1cccc(O)c1` [Phenol 3-ethyl, 3-ethylphenol], for which the pKa in [1] is given as 9.9.

With `Oc1cccc(F)c1` [Phenol 3-F, 3-fluorophenol], the Kd worked out at 41 µM in data set [8] (setting [17]) and 110 µM in data set [7]. Further, the “∆Hion (heat of ionization)” value in data set [10] (Ionic strength 0.1) is reported as 6.29 (0.05). Moreover, the “∆G of binding” value in [11] (setting [15]) is given as -11.10 (0.05) kcal/mol.

`Oc1cc(Cl)cc(Cl)c1` [3,5-Cl2]: in data set [2], the “δ1, chemical shift” value was 16.6 ppm and the “δ2, chemical shift” value was 14.8 ppm. In data set [4] (setting [13]), this compound displayed a pKa of 8.1.

Regarding `Oc1ccc(I)cc1` [Phenol 4-I], in data set [2], the “δ1, chemical shift” value is given as 16.7 ppm.

As for `O=[N+]([O-])c1ccc(O)cc1F` [Phenol 3-F-4-NO2, 3-fluoro-4-nitrophenol], the pKa in [5] came to 6.1. For the same compound, in [2], the “δ1, chemical shift” value came to 14.4 ppm and the “δ2, chemical shift” value was 14.3 ppm.

Consider `CC(=O)c1ccc(O)cc1` [Phenol 4-acetyl, 4-Acetylphenol], for which the pKa in data set [1] is given as 8.1. In [2], the “δ1, chemical shift” value worked out at 16.0 ppm and the “δ2, chemical shift” value was found to be 15.4 ppm.

With `Oc1ccc(F)c(F)c1F` [2,3,4-F3], the pKa in [4] (setting [13]) is reported as 7.7^b.

As to `Oc1cc(F)c(F)c(F)c1` [3,4,5-F3, 3,4,5-trifluorophenol], the Kd in [8] (setting [17]) was 6.1 µM; in data set [7] it was 17 µM. In data set [2], the “δ1, chemical shift” value stood at 16.3 ppm. Besides, in data set [2], the “δ2, chemical shift” value worked out at 14.9 ppm. The “∆Hion (heat of ionization)” value in data set [10] (Ionic strength 0.1) is reported as 5.62 (0.06). In addition, the “∆G of binding” value in data set [11] (Direct Titration) is reported as -11.51 (0.04) kcal/mol; in [11] (setting [15]), -11.1 (0.1) kcal/mol. Moreover, the “∆Hrel (relative enthalpy of binding)” value was -6.0 (0.1) kcal/mol in data set [11] (Direct Titration) and -5.8 (0.3) kcal/mol in [11] (setting [16]). The pKa in data set [4] and in data set [4] (setting [12]) was 8.2 in each case.

With `Oc1cccc(F)c1F` [2,3-F2], the pKa in data set [4] (setting [13]) was 7.7^b.
